Source: patent US20150005237A1, “PEPTIDIC INHIBITOR OF SIGNAL TRANSMISSION FROM G-ALPHA-S TO G-ALPHA-I-COUPLED RECEPTOR CASCADES” (UNIVERSITÄT INNSBRUCK, priority 2011, published 2015)
Where no end group is shown, it is not given here.

How the values were obtained:
Type in all cases: cell-based
Gαs- to Gαi-cascades = experiment: Reggai peptide applied in living HEK293 cells: signal transmission from Gαs- to Gαi-cascades; settings: HEK293 cell line
Text: The present inventors identified and successfully applied the Reggai peptide directly in the living cells, in particular cell culture, HEK293 cell line, and changed the original and conserved Reggai sequence in a model organism (budding yeast) to prevent signal transmission from Gαs- to Gαi-cascades. The Reggai peptide had no effect on sole activation of either cascade, just in the case of simultaneous activation of both types of receptors the Gαs triggered and PKA-mediated elevation of Gαi activities was abolished. In the mammalian system the present inventors used biochemical tools to measure changes of cAMP levels, G protein activities and MAPK activation downstream of Gαi-coupled receptors upon formation of the dynamic interaction between PKA and Gαi.

[1] = target: T1, RIIβ-RlucF[1]:PKAc-RlucF[2] complex (Rattus norvegicus, UniProt P12369); experiment: Renilla luciferase PCA of PKA holoenzyme dissociation in HEK293T cells; settings: HEK293T cells stably expressing the PKA reporter
T1 construct: Renilla luciferase PCA fragment F[1]; expressed in transfected cells
T1 sequence (P12369 whole entry, the tested form may be a part, one chain of several): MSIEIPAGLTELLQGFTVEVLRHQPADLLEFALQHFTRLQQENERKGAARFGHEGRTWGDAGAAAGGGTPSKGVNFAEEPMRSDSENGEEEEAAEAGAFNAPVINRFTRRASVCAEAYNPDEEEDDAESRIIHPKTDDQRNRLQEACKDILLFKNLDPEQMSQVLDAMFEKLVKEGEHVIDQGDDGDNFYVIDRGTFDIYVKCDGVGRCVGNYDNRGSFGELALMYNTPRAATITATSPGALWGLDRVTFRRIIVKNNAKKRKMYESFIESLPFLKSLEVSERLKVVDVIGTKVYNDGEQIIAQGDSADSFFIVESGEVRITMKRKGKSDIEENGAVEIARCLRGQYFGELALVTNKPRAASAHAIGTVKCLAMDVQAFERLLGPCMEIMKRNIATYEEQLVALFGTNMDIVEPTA
Experimental: We have generated a stable HEK293T cell line coexpressing the PCA fusion proteins RIIβ-Rluc-F[1] and PKAc-RlucF[2], as previously described. All cells were grown in DMEM supplemented with 10% FBS. We treated confluent HEK293T cells (stably expressing the PKA reporter) grown in 24 well plate format with varying concentrations and combinations of cAMP analogs 6-MBC-cAMP and Sp-5,6-DCI-cBIMPS (15 min; Biolog, Germany). We pretreated confluent HEK293T cells (stably expressing the PKA reporter) grown in 24 well plate format with 250 μM of Rp-cAMP (60 minutes) or with 6-MBC-cAMP and Sp-5,6-DCI-cBIMPS (=RII selective, each 50 μM; 15 min). We pretreated confluent HEK293T cells (stably expressing the PKA reporter) grown in 24 well plate format for 30 minutes with TAT or Reggai fusion peptides (˜3 μM) followed by exposure to forskolin (100 μM; 15 min). Following treatment, growth medium was exchanged and cells were resuspended in 350 μl of PBS. 100 μl of cell suspensions were transferred to 96-well plates and subjected to bioluminescence analysis using the LMaxTMII384 luminometer (Molecular Devices). Rluc bioluminescence signals were integrated for 10 seconds following addition of the Rluc substrate benzyl-coelenterazine (5 μM; Nanolight). […]

[2] = system: Erk1/2 phosphorylation in δOR-HEK293 cells; experiment: MAPK-phosphorylation assay (Erk1/2) in δOR-HEK293 cells; settings: for SNC80-induced Erk1/2 phosphorylation (amplitude and duration): pre-treatment before SNC80
Experimental: δOR-HEK293 cells were grown in 12 or 24 well plate formats (DMEM supplemented with 10% FBS). Either 24 or 48 hours after splitting or co-transfection in overexpression studies [transfected with constructs encoding the regulatory (RIIβ) or catalytic subunits (PKAc) of PKA] confluent cells were treated with inhibitors (KT5720 for 60 minutes, pertussis toxin for 16 hours), chemical modulators (forskolin, 6-MBC-cAMP, Sp-5,6-DCI-cBIMPS, Sp-8-PIP-cAMPs, 2-Cl-8-MA-cAMP [all for 15 minutes] or Rp-cAMP for 60 minutes) and/or the δOR ligand SNC80 (for either 3, 6, 10 or 15 minutes). cAMP analogs purchased from Biolog (6-MBC-cAMP, #M012; Sp-5,6-DCI-cBIMPS, #D014; Sp-8-PIP-cAMPs, #P005, 2-Cl-8-MA-cAMP, #C080; Rp-cAMP, #A002S) (see Bobrovskaya et al., Cell. Signal. 19, 1141-1149 (2007); Nguyen et al., Cell. Signal. 16, 1141-1151 (2004); Maronde et al., J. Pineal Res. 27, 170-182 (1999); Ogreid et al., Eur. J. Biochem. 181, 19-31 (1989); Poppe et al., Nat. Methods 5, 277-278 (2008)).
Following treatments at 37° C. for 3, 6, 10 or 15 minutes the reactions were stopped by direct addition of Laemmli sample buffer. Equal amounts of protein (lysates normalized to loading control proteins) were subjected to polyacrylamide gel electrophoresis followed by immunoblotting (IB). To analyze the phosphorylation of Erk1/2 we applied the Phospho-p44/42 MAP Kinase antibody (Cell Signaling Technology, #9101). Quantitative densitometry of immuno blot bands was performed using the program ImageQuant 5.2 (Molecular Dynamics).

trimeric Gαi:βγ complex = experiment: BRET assay of Gαi1:Gγ2 conformational rearrangement in δOR-HEK293 cells
Text: δOR-HEK293 cells grown in DMEM supplemented with 10% FBS were transiently transfected with the following constructs: For measurements of the interactions of G protein subunits among each other and with the receptor we transfected Gαi1 with the Renilla luciferase (Rluc) inserted at amino acid position 91 and the UV-shifted GFP variant GFP10 (substitutions: P64L, S147P, and S202P) fused to the C-terminus of […] or the UV-shifted variant GFP2 (substitution: F64L) fused to the C-terminus of the δOR. In overexpression studies, we coexpressed regulatory (RIIβ) or catalytic subunits (PKAc) of PKA. […] Total fluorescence and bioluminescence were evaluated for each well using a FlexStation2 (Molecular Devices) and Mithras LB 940 (Berthold Technologies), respectively. uvGFP fluorescence was excited at 400 nm and read at 515 nm. Fluorescence values were corrected by subtracting the auto-fluorescence of cells not expressing uvGFP. BRET between Rluc and GFP2 or GFP10 was measured after the addition of 5 μM Rluc substrate DeepBlueC (bisdeoxy-coelenterazine, PerkinElmer, Lifescience). BRET signals were derived from the emission detected with the energy acceptor filter (515±15 nm; GFP2/10) divided by the emission detected with the energy donor filter (410±40 nm; Rluc/Rluc3). […]

R:Gαi3 complexes = experiment: cAMP agarose precipitation of R:Gαi3 complexes from COS7 cells; settings: forskolin pre-treatment 15 minutes, 2AHA-cAMP-coupled agarose beads
Experimental: HEK293, U2OS cells and total brains of mice were homogenized using a Potter S (B. Braun Biotech International) with 15 strikes (lysis buffer: 10 mM sodium phosphate pH 7.2, 150 mM NaCl, 0.05% Triton X100 supplemented with standard protease inhibitors). We clarified the lysate (13000 rpm, 15 min) and precipitated PKA regulatory subunit associated protein complexes with PKA selective 8-AHA-cAMP agarose and Rp-8-AHA-cAMP agarose resin (Biolog, […]) for two hours at 4° C. As negative control experiment we added excess of cAMP (5 mM) to the brain lysates to mask the cAMP binding sites in the R subunits for precipitation. Resin associated proteins were washed four times with lysis buffer and eluted with Laemmli sample buffer. Equal amounts of protein (lysates normalized to loading control proteins) were subjected to polyacrylamide gel electrophoresis followed by immunoblotting with indicated antibodies. We performed densitometric quantification of RIIβ, PKAc and Gαi3 (in each case normalized on the most abundant precipitated protein from the same immunoblot (n=3) to compare complex formation and fold enrichment between holoenzyme (precipitated with Rp-8-AHA-cAMP) and activated R complexes (precipitated with 8-AHA-cAMP).
We then tested whether pre-dissociating endogenous R/Reg and PKAc/Cat subunits would change the stoichiometry of R:Gαi3 or R:PDK1 complexes. […]

PKA kinase activity = experiment: CREB phosphorylation monitoring of PKA kinase activity; settings: conditions used for the Erk1/2 experiments
Experimental: We also tested the impact of R:Gαi complex formation on the evolutionary conserved route of signal transmission from Gαi to MAPK9. […] Pre-treatment with forskolin potentiated the SNC80-induced Erk1/2 phosphorylation (FIG. 2c). […] To exclude the possibility that PKA kinase activity could account for this potentiation, we pre-treated cells with the PKA inhibitor KT5720 (unless noted otherwise, all subsequent experiments were carried out in the presence of this kinase activity inhibitor). We confirmed that KT5720 inhibits PKA kinase activity under the conditions used by monitoring CREB phosphorylation (activated independently of Gαi signalling).

QGDSADSFFIVESGE (not fully specified; listed as Homo sapiens) [Reggai peptide, PKA RIIβ-derived 15 amino acid peptide; applied to cells as fusion with GST, TAT and Flag]
sole activation of either cascade (Gαs or Gαi) (Gαs- to Gαi-cascades; only one cascade activated): no effect
Gαs triggered and PKA-mediated elevation of Gαi activities (Gαs- to Gαi-cascades; simultaneous activation of both types of receptors): abolished
PKA holoenzyme dissociation [1]: Neither Reggai nor TAT control peptide pre-treatment of HEK293T cells had any effect
potentiation of SNC80-mediated Erk1/2 phosphorylation using RII/RegII subunit activators ([2]; fusion peptides ~3 μM, 30 minutes): prevented

C=CCN1C[C@H](C)N([C@H](c2ccc(C(=O)N(CC)CC)cc2)c2cccc(OC)c2)C[C@H]1C [SNC80]
Erk1/2 phosphorylation ([2]; agonist alone): large but transient increase
BRET between Gαi1 and Gγ2 (trimeric Gαi:βγ complex; agonist alone): decrease

C=C[C@@]1(C)CC(=O)[C@]2(O)[C@@]3(C)[C@@H](O)CCC(C)(C)[C@@H]3[C@H](O)[C@H](OC(C)=O)[C@@]2(C)O1 [forskolin]
fold enrichment of R:Gαi3 complexes (R:Gαi3 complexes): 3.8 (SD±0.99) fold
conformation of the trimeric G-protein complex (trimeric Gαi:βγ complex; treatment alone, without SNC80): no effect

CNc1nc2c(N)nc(Cl)nc2n1C1O[C@@H]2COP(=O)([O-])O[C@H]2[C@H]1O.[Na+] (stereo partly drawn) [2-Cl-8-MA-cAMP]
SNC80-induced Erk1/2 phosphorylation (amplitude and duration) [2]: no effect

CCCCCCOC(=O)[C@]1(O)C[C@@H]2O[C@@]1(C)n1c3ccccc3c3c4c(c5c6ccccc6n2c5c31)C(=O)NC4 [KT5720]
PKA kinase activity (CREB phosphorylation) (PKA kinase activity): inhibits

Nc1ncnc2c1nc(N1CCCCC1)n2[C@@H]1O[C@@H]2COP(=O)(O)O[C@H]2[C@H]1O [8-PIP-cAMP]
SNC80-induced Erk1/2 phosphorylation (amplitude and duration) [2]: no effect

6-MBC-cAMP
SNC80-induced Erk1/2 phosphorylation (amplitude and duration) [2]: potentiated

Nc1ncnc2c1ncn2[C@@H]1O[C@@H]2COP(O)(=S)O[C@H]2[C@H]1O (stereo partly drawn) [Rp-cAMP]
PKA holoenzyme dissociation [1]: prevented
SNC80+RegII subunit activator and SNC80+forskolin mediated Erk1/2 phosphorylation ([2]; pre-treatment 250 μM, 60 minutes): decreased

OC1C2OP(O)(=S)OCC2OC1n1cnc2cc(Cl)c(Cl)cc21 (stereo not drawn) [Sp-5,6-DCI-cBIMPS]
SNC80-induced Erk1/2 phosphorylation (amplitude and duration) [2]: potentiated
